Each molecule was assayed against PIM1 (Homo sapiens (Human), UniProt P11309) (assay: biochemical). Settings: 20 pM PIM1, 1 μM FAM-peptide, 10 μM ATP, 90 minutes at room temperature; read-out: PIM1 LC3K (KI).
Format: biochemical

PIM1, sequence (P11309 whole entry): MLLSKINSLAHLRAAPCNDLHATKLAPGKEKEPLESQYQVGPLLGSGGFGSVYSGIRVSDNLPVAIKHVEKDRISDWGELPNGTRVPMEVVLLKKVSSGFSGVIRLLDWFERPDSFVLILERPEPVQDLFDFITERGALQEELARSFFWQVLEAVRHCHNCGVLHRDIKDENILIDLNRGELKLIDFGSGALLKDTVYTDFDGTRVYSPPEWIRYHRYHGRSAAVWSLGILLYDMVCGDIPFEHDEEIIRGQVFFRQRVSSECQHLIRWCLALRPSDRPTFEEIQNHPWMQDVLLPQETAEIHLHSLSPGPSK

| SMILES | Ki [nM] |
| --- | --- |
| Cn1ncc(NC(=O)c2ccc(F)c(-c3c(F)cc(C4(O)CCC4)cc3F)n2)c1[C@@H]1CC[C@@H](N)[C@@H](F)CO1 [Example 290, N-(5-((2S,5R,6R)-5-amino-6-fluorooxepan-2-yl)-1-methyl-1H-pyrazol-4-yl)-6-(2,6-difluoro-4-(1-hydroxycyclobutyl)phenyl)-5-fluoropicolinamide] | 0.0131 |
| Cn1ncc(NC(=O)c2nc(-c3cc(Cl)ccc3F)sc2N)c1[C@@H]1CC[C@@H](N)[C@H](F)CO1 [Example 291, 5-amino-N-(5-((2S,5R,6S)-5-amino-6-fluorooxepan-2-yl)-1-methyl-1H-pyrazol-4-yl)-2-(5-chloro-2-fluorophenyl)thiazole-4-carboxamide] | 0.018 |
| CC(O)c1cc(F)c(-c2nc(C(=O)Nc3cnn(C)c3[C@@H]3CC[C@@H](N)[C@H](F)CO3)cs2)c(F)c1 (stereo partly drawn) [Example 294, N-(5-((2S,5R,6S)-5-amino-6-fluorooxepan-2-yl)-1-methyl-1H-pyrazol-4-yl)-2-(2,6-difluoro-4-(1-hydroxyethyl)phenyl)thiazole-4-carboxamide] | 0.029 |
| Cn1ncc(NC(=O)c2csc(-c3c(F)cc(C4(O)CCC4)cc3F)n2)c1[C@@H]1CC[C@@H](N)[C@H](F)CO1 [Example 295, N-(5-((2S,5R,6S)-5-amino-6-fluorooxepan-2-yl)-1-methyl-1H-pyrazol-4-yl)-2-(2,6-difluoro-4-(1-hydroxycyclobutyl)phenyl)thiazole-4-carboxamide] | 0.027 |
| Cn1ncc(NC(=O)c2csc(-c3c(F)cc(C(C)(C)O)cc3F)n2)c1[C@@H]1CC[C@@H](N)[C@H](F)CO1 [Example 297, N-(5-((2S,5R,6S)-5-amino-6-fluorooxepan-2-yl)-1-methyl-1H-pyrazol-4-yl)-2-(2,6-difluoro-4-(2-hydroxypropan-2-yl)phenyl)thiazole-4-carboxamide] | 0.021 |
| CCc1ccc(F)c(-c2nc(C(=O)Nc3cnn(C)c3[C@@H]3CC[C@@H](N)[C@H](F)CO3)cs2)c1 [Example 307, N-(5-((2S,5R,6S)-5-amino-6-fluorooxepan-2-yl)-1-methyl-1H-pyrazol-4-yl)-2-(5-ethyl-2-fluorophenyl)thiazole-4-carboxamide] | 0.081 |
| Cn1ncc(NC(=O)c2csc(-c3cccc(Cl)c3F)n2)c1[C@@H]1CC[C@@H](N)[C@H](F)CO1 [Example 308, N-(5-((2S,5R,6S)-5-amino-6-fluorooxepan-2-yl)-1-methyl-1H-pyrazol-4-yl)-2-(3-chloro-2-fluorophenyl)thiazole-4-carboxamide] | 0.054 |
| Cn1ncc(NC(=O)c2csc(-c3cc(C4CC4)ccc3F)n2)c1[C@@H]1CC[C@@H](N)[C@H](F)CO1 [Example 310, N-(5-((2S,5R,6S)-5-amino-6-fluorooxepan-2-yl)-1-methyl-1H-pyrazol-4-yl)-2-(5-cyclopropyl-2-fluorophenyl)thiazole-4-carboxamide] | 0.093 |
| Cn1ncc(NC(=O)c2csc(-c3ccccc3C(F)(F)F)n2)c1[C@@H]1CC[C@@H](N)[C@H](F)CO1 [Example 311, N-(5-((2S,5R,6S)-5-amino-6-fluorooxepan-2-yl)-1-methyl-1H-pyrazol-4-yl)-2-(2-(trifluoromethyl)phenyl)thiazole-4-carboxamide] | 1.65 |
| Cc1cc(F)c(-c2nc(C(=O)Nc3cnn(C)c3[C@@H]3CC[C@@H](N)[C@H](F)CO3)cs2)c(F)c1 [Example 312, N-(5-((2S,5R,6S)-5-amino-6-fluorooxepan-2-yl)-1-methyl-1H-pyrazol-4-yl)-2-(2,6-difluoro-4-methylphenyl)thiazole-4-carboxamide] | 0.003 |
| Cn1ncc(NC(=O)c2csc(-c3ccc(Cl)cc3F)n2)c1[C@@H]1CC[C@@H](N)[C@H](F)CO1 [Example 313, N-(5-((2S,5R,6S)-5-amino-6-fluorooxepan-2-yl)-1-methyl-1H-pyrazol-4-yl)-2-(4-chloro-2-fluorophenyl)thiazole-4-carboxamide] | 0.002 |
| Cn1ncc(NC(=O)c2csc(-c3cccc(C(F)(F)F)n3)n2)c1[C@@H]1CC[C@@H](N)[C@H](F)CO1 [Example 314, N-(5-((2S,5R,6S)-5-amino-6-fluorooxepan-2-yl)-1-methyl-1H-pyrazol-4-yl)-2-(6-(trifluoromethyl)pyridin-2-yl)thiazole-4-carboxamide] | 2.08 |
| Cn1ncc(NC(=O)c2csc(-c3ccccc3F)n2)c1[C@@H]1CC[C@@H](N)[C@@H](F)CO1 [Example 318, N-(5-((2S,5R,6R)-5-amino-6-fluorooxepan-2-yl)-1-methyl-1H-pyrazol-4-yl)-2-(2-fluorophenyl)thiazole-4-carboxamide] | 0.098 |
| Cn1ncc(NC(=O)c2nc(-c3c(F)cccc3C(F)(F)F)sc2N)c1[C@@H]1CC[C@@H](N)[C@H](F)CO1 [Example 331, 5-amino-N-(5-((2S,5R,6S)-5-amino-6-fluorooxepan-2-yl)-1-methyl-1H-pyrazol-4-yl)-2-(2-fluoro-6-(trifluoromethyl)phenyl)thiazole-4-carboxamide] | 0.104 |

The next lines start with the values.

| Ki [nM] | SMILES |
| --- | --- |
| 0.024 | Cc1ccc(F)c(-c2nc(C(=O)Nc3cnn(C)c3[C@@H]3CC[C@@H](N)[C@H](F)CO3)c(N)s2)c1 [Example 292, 5-amino-N-(5-((2S,5R,6S)-5-amino-6-fluorooxepan-2-yl)-1-methyl-1H-pyrazol-4-yl)-2-(2-fluoro-5-methylphenyl)thiazole-4-carboxamide] |
| 0.059 | COc1ccc(-c2nc(C(=O)Nc3cnn(C)c3[C@@H]3CC[C@@H](N)[C@H](F)CO3)cs2)c(F)c1 [Example 293, N-(5-((2S,5R,6S)-5-amino-6-fluorooxepan-2-yl)-1-methyl-1H-pyrazol-4-yl)-2-(2-fluoro-4-methoxyphenyl)thiazole-4-carboxamide] |
| 0.031 | COc1cc(F)c(-c2nc(C(=O)Nc3cnn(C)c3[C@@H]3CC[C@@H](N)[C@H](F)CO3)cs2)c(F)c1 [Example 296, N-(5-((2S,5R,6S)-5-amino-6-fluorooxepan-2-yl)-1-methyl-1H-pyrazol-4-yl)-2-(2,6-difluoro-4-methoxyphenyl)thiazole-4-carboxamide] |
| 0.783 | Cn1ncc(NC(=O)c2csc(-c3ccccc3C(F)F)n2)c1[C@@H]1CC[C@@H](N)[C@H](F)CO1 [Example 298, N-(5-((2S,5R,6S)-5-amino-6-fluorooxepan-2-yl)-1-methyl-1H-pyrazol-4-yl)-2-(2-(difluoromethyl)phenyl)thiazole-4-carboxamide] |
| 0.023 | Cn1ncc(NC(=O)c2csc(-c3cc(Br)ccc3F)n2)c1[C@@H]1CC[C@@H](N)[C@H](F)CO1 [Example 299, N-(5-((2S,5R,6S)-5-amino-6-fluorooxepan-2-yl)-1-methyl-1H-pyrazol-4-yl)-2-(5-bromo-2-fluorophenyl)thiazole-4-carboxamide] |
| 0.134 | Cn1ncc(NC(=O)c2csc(-c3ccncc3F)n2)c1[C@@H]1CC[C@@H](N)[C@H](F)CO1 [Example 300, N-(5-((2S,5R,6S)-5-amino-6-fluorooxepan-2-yl)-1-methyl-1H-pyrazol-4-yl)-2-(3-fluoropyridin-4-yl)thiazole-4-carboxamide] |
| 0.058 | Cn1ncc(NC(=O)c2csc(-c3cc(F)ccc3F)n2)c1[C@@H]1CC[C@@H](N)[C@H](F)CO1 [Example 301, N-(5-((2S,5R,6S)-5-amino-6-fluorooxepan-2-yl)-1-methyl-1H-pyrazol-4-yl)-2-(2,5-difluorophenyl)thiazole-4-carboxamide] |
| 0.031 | Cn1ncc(NC(=O)c2csc(-c3cc(Cl)ccc3F)n2)c1[C@@H]1CC[C@@H](N)[C@H](F)CO1 [Example 302, N-(5-((2S,5R,6S)-5-amino-6-fluorooxepan-2-yl)-1-methyl-1H-pyrazol-4-yl)-2-(5-chloro-2-fluorophenyl)thiazole-4-carboxamide] |
| 0.013 | Cc1ccc(F)c(-c2nc(C(=O)Nc3cnn(C)c3[C@@H]3CC[C@@H](N)[C@H](F)CO3)cs2)c1F [Example 303, N-(5-((2S,5R,6S)-5-amino-6-fluorooxepan-2-yl)-1-methyl-1H-pyrazol-4-yl)-2-(2,6-difluoro-3-methylphenyl)thiazole-4-carboxamide] |
| 0.014 | C[C@@H](O)c1cc(F)c(-c2nc(C(=O)Nc3cnn(C)c3[C@@H]3CC[C@@H](N)[C@H](F)CO3)cs2)c(F)c1 [Example 304, N-(5-((2S,5R,6S)-5-amino-6-fluorooxepan-2-yl)-1-methyl-1H-pyrazol-4-yl)-2-(2,6-difluoro-4-((R)-1-hydroxyethyl)phenyl)thiazole-4-carboxamide] |
| 0.008 | C[C@H](O)c1cc(F)c(-c2nc(C(=O)Nc3cnn(C)c3[C@@H]3CC[C@@H](N)[C@H](F)CO3)cs2)c(F)c1 [Example 305, N-(5-((2S,5R,6S)-5-amino-6-fluorooxepan-2-yl)-1-methyl-1H-pyrazol-4-yl)-2-(2,6-difluoro-4-((S)-1-hydroxyethyl)phenyl)thiazole-4-carboxamide] |
| 0.044 | Cn1ncc(NC(=O)c2csc(-c3cccc(F)c3F)n2)c1[C@@H]1CC[C@@H](N)[C@H](F)CO1 [Example 306, N-(5-((2S,5R,6S)-5-amino-6-fluorooxepan-2-yl)-1-methyl-1H-pyrazol-4-yl)-2-(2,3-difluorophenyl)thiazole-4-carboxamide] |
| 0.274 | Cn1ncc(NC(=O)c2csc(-c3cccc(F)c3Cl)n2)c1[C@@H]1CC[C@@H](N)[C@H](F)CO1 [Example 309, N-(5-((2S,5R,6S)-5-amino-6-fluorooxepan-2-yl)-1-methyl-1H-pyrazol-4-yl)-2-(2-chloro-3-fluorophenyl)thiazole-4-carboxamide] |
| 0.091 | Cc1cccc(F)c1-c1nc(C(=O)Nc2cnn(C)c2[C@@H]2CC[C@@H](N)[C@H](F)CO2)cs1 [Example 315, N-(5-((2S,5R,6S)-5-amino-6-fluorooxepan-2-yl)-1-methyl-1H-pyrazol-4-yl)-2-(2-fluoro-6-methylphenyl)thiazole-4-carboxamide] |
| 0.016 | Cc1cccc(F)c1-c1nc(C(=O)Nc2cnn(C)c2[C@@H]2CC[C@@H](N)[C@H](F)CO2)c(N)s1 [Example 330, 5-amino-N-(5-((2S,5R,6S)-5-amino-6-fluorooxepan-2-yl)-1-methyl-1H-pyrazol-4-yl)-2-(2-fluoro-6-methylphenyl)thiazole-4-carboxamide] |

— patent publication US9328106B2, “Cyclic ether pyrazol-4-yl-heterocyclyl-carboxamide compounds and methods of use” (Genentech, Inc., priority 2012, dated 2016)
